{"source": "ChEMBL document CHEMBL1155289", "about": "“Stimulatory effect of apigenin-6-C-beta-L-fucopyranoside on insulin secretion and glycogen synthesis” (2009)", "assay_type_in_all_cases": "functional", "key": {"Rattus norvegicus [1]": {"test_system": "Rattus norvegicus", "assay": "Antidiabetic activity against glucose loaded Wistar rat assessed as serum glucose level at 10 mg/kg, po after 60 mins by oral glucose tolerance test"}, "Rattus norvegicus [2]": {"test_system": "Rattus norvegicus", "assay": "Antidiabetic activity against glucose loaded Wistar rat assessed as serum glucose level at 10 mg/kg, po after 15 mins by oral glucose tolerance test"}, "Rattus norvegicus [3]": {"test_system": "Rattus norvegicus", "assay": "Antidiabetic activity against glucose loaded Wistar rat assessed as serum glucose level at 10 mg/kg, po by oral glucose tolerance test"}, "Rattus norvegicus [4]": {"test_system": "Rattus norvegicus", "assay": "Antidiabetic activity against glucose loaded Wistar rat assessed as serum glucose level at 10 mg/kg, po after 30 mins by oral glucose tolerance test"}}, "data": [{"smiles": "Cc1cnc(C(=O)NCCc2ccc(S(=O)(=O)NC(=O)NC3CCCCC3)cc2)cn1", "note": "[GLIPIZIDE]", "values": [{"measurement": "Activity", "setting": "Rattus norvegicus [1]", "value": 123, "unit": "mg/dL"}, {"measurement": "Activity", "setting": "Rattus norvegicus [2]", "value": 160, "unit": "mg/dL"}, {"measurement": "Activity", "setting": "Rattus norvegicus [3]", "value": 120, "unit": "mg/dL"}, {"measurement": "Activity", "setting": "Rattus norvegicus [4]", "value": 143, "unit": "mg/dL"}]}]}
